Measured values: ChEMBL document CHEMBL4312037, “Fragment hopping-based discovery of novel sulfinylacetamide-diarylpyrimidines (DAPYs) as HIV-1 nonnucleoside reverse transcriptase inhibitors” (Eur J Med Chem, 2020)

Experiments:
[1] = tested on: Human immunodeficiency virus 1; assay: Antiviral activity against HIV1 harbouring NNRTI K103N; format: functional, organism-based
[2] = tested on: Human immunodeficiency virus 1; assay: Antiviral activity against HIV1; format: functional, organism-based
[3] = target: Human immunodeficiency virus type 1 reverse transcriptase (Human immunodeficiency virus 1, UniProt Q72547)
Description: Inhibition of recombinant wild type HIV-1 His-tagged reverse transcriptase p66/p51 expressed in Escherichia coli JM109 using poly(rA)/oligo(dT)16 as template/primer incubated for 40 mins by pico-green based spectrofluorometric analysis

[4] = in vitro; details: human, MT4 cells; MT4 cells infected with HIV1 3B
Description: Selectivity index, ratio of CC50 for cytotoxicity against human MT4 cells to EC50 for antiviral activity against HIV1 3B infected in human MT4 cells

[5] = tested on: Human immunodeficiency virus 1; assay: Antiviral activity against HIV1 3B infected in human MT4 cells assessed as virus-induced cytopathic effect incubated for 5 days by MTT assay; format: functional, organism-based; details: Human immunodeficiency virus 1, 3B, MT4, 120 h
[6] = in vitro; details: human, MT4 cells; MT4 cells infected with HIV1 3B K103N mutant
Description: Selectivity index, ratio of CC50 for cytotoxicity against human MT4 cells to EC50 for antiviral activity against HIV1 3B harbouring NNRTI K103N mutant infected in human MT4 cells

[7] = Cytotoxicity against human MT4 cells assessed as reduction in cell viability incubated for 5 days by MTT assay; format: cell-based
[8] = tested on: Human immunodeficiency virus 1; assay: Antiviral activity against HIV1 3B harbouring NNRTI K103N mutant infected in human MT4 cells assessed as virus-induced cytopathic effect incubated for 5 days by MTT assay; format: functional, organism-based; details: Human immunodeficiency virus 1, 3B, MT4, 120 h
[9] = Stability in human liver microsomes assessed as half life; format: ADME, Microsome
[10] = Stability in rat liver microsomes assessed as intrinsic clearance; format: ADME, Microsome; details: read-out: CLH
[11] = Stability in rat liver microsomes assessed as half life; format: ADME, Microsome
[12] = Stability in human liver microsomes assessed as intrinsic clearance; format: ADME, Microsome; details: read-out: CLH

O=C(CSc1nnc(Br)n1-c1ccc(C2CC2)c2ccccc12)Nc1ccc(C(=O)O)cc1Cl
EC50 [1]: < 3 nM
EC50 [2]: 2.85 nM

COc1cc2nc([S+]([O-])CC(=O)Nc3ccc([N+](=O)[O-])cc3)nc(Nc3c(C)cc(/C=C/C#N)cc3C)c2cc1OC (stereo not drawn)
IC50 [3]: 11 nM
selectivity ratio [4]: 4590
EC50 [5]: 41.2 nM
selectivity ratio [6]: 12100
CC50 at 120 h [7]: 189000 nM
EC50 [8]: 15.7 nM

COc1cc2nc([S+]([O-])CC(=O)Nc3ccc(C#N)cc3)nc(Nc3c(C)cc(/C=C/C#N)cc3C)c2cc1OC (stereo not drawn)
IC50 [3]: 5.7 nM
selectivity ratio [4]: > 8870
EC50 [5]: 24.9 nM
half-life [9]: 1.37 h
selectivity ratio [6]: > 21200
microsomal CLint [10]: 8.58 µL/min/mg
half-life [11]: 1.35 h
microsomal CLint [12]: 8.45 µL/min/mg
CC50 at 120 h [7]: > 221000 nM
EC50 [8]: 10.4 nM
